Experimental data reported in patent publication US9738634B2, “Heterocyclic amide compound and herbicide” (SYNGENTA PARTICIPATIONS AG, priority 2013, dated 2017).

Legend:
Assay type in all cases: in vivo
crabgrass = experiment: Test Example 3: weedkilling efficacy through soil treatment; D: crabgrass; conditions: soil treatment, treatment dosage 315 g/ha
Summary of the method: (§1)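 Crop and weed responses were judged three weeks after a uniform surface spray of the water-diluted emulsion at the given g/ha rate. Seeds sat beneath about 1.5 cm of sterilized diluvial soil, and boxes stood in a greenhouse at 25 to 30° C.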

transplanted rice = experiment: Test Example 1: preemergent weed treatment in the submerged state, effect on crop; a: transplanted rice; conditions: treatment dosage 252 g/ha
Summary of the method: (§2)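 Submerged pre-emergence treatment, water-surface application of compound emulsion at g/ha dosages; 4 cm flooded alluvial soil, weeds sown and 2.5-leaf rice transplanted same day. Rated after 3 weeks, greenhouse.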

beet = experiment: Test Example 3: soil treatment, effect on crop; f: beet; conditions: soil treatment, treatment dosage 315 g/ha
Summary of the method: as §1

soybean = experiment: Test Example 3: soil treatment, effect on crop; d: soybean; conditions: soil treatment, treatment dosage 315 g/ha
Summary of the method: as §1

birds-eye speedwell = experiment: Test Example 3: weedkilling efficacy through soil treatment; p: birds-eye speedwell; conditions: soil treatment, treatment dosage 315 g/ha
From the text: Weedkilling Efficacy Test Through Soil Treatment
Sterilized diluvial soil was introduced into 21 cm long, 13 cm wide, 7 cm deep plastic boxes, and seeds of crabgrass, green foxtail, barnyard grass, wild oat, black-grass, Italian ryegrass, common wind-grass, Indian mallow, redroot pigweed, fig-leafed goosefoot, chickweed, catchweed, birds-eye speedwell, corn, soybean, rice, wheat, beet and rapeseed were each spot-sown, and covered with about 1.5 cm of soil. Next, emulsions of compounds of the present invention prepared according to compounding example 2 were diluted with water to give the specified dosages, and applied uniformly onto the soil surface with a small sprayer. The plants were grown by placing the plastic boxes in a greenhouse at 25 to 30° C., and 3 weeks after the pesticide treatment the effect on each type of plant was investigated on the basis of the assessment criteria of test example 1.
A: barnyard grass, B: bulrush, C: oval-leafed pondweed, D: crabgrass, E: green foxtail, F: barnyard grass, G: wild oat, H: black-grass, I: Italian ryegrass, J: common wind-grass, K: Indian mallow, L: redroot pigweed, M: fig-leafed goosefoot, N: chickweed, O: catchweed, p: birds-eye speedwell, a: transplanted rice, b: directly sown rice, c: corn, d: soybean, e: wheat, f: beet, g: rapeseed
Further, pesticide dosage (g/ha) indicates the concentration regulated such that treatment was with only the stated number of grams (g), when calculated per hectare (ha).

chickweed = experiment: Test Example 3: weedkilling efficacy through soil treatment; N: chickweed; conditions: soil treatment, treatment dosage 315 g/ha
Summary of the method: as §1

barnyard grass [1] = experiment: Test Example 2: weedkilling efficacy, growth period weed treatment in the submerged state; A: barnyard grass; conditions: treatment dosage 252 g/ha
Summary of the method: (§3)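 Seedlings at 1-2 leaves in 4 cm-deep submerged alluvial soil received emulsion formulations on the water surface, dosed per hectare; effects were judged 3 weeks on.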

directly sown rice = experiment: Test Example 3: soil treatment, effect on crop; b: directly sown rice; conditions: soil treatment, treatment dosage 315 g/ha
Summary of the method: as §1

black-grass = experiment: Test Example 3: weedkilling efficacy through soil treatment; H: black-grass; conditions: soil treatment, treatment dosage 315 g/ha
Summary of the method: as §1

oval-leafed pondweed [2] = experiment: Test Example 2: weedkilling efficacy, growth period weed treatment in the submerged state; C: oval-leafed pondweed; conditions: treatment dosage 252 g/ha
Summary of the method: as §3

bulrush [3] = experiment: Test Example 2: weedkilling efficacy, growth period weed treatment in the submerged state; B: bulrush; conditions: treatment dosage 252 g/ha
Summary of the method: as §3

wheat = experiment: Test Example 3: soil treatment, effect on crop; e: wheat; conditions: soil treatment, treatment dosage 315 g/ha
Summary of the method: as §1

corn = experiment: Test Example 3: soil treatment, effect on crop; c: corn; conditions: soil treatment, treatment dosage 315 g/ha
Summary of the method: as §1

wild oat = experiment: Test Example 3: weedkilling efficacy through soil treatment; G: wild oat; conditions: soil treatment, treatment dosage 315 g/ha
Summary of the method: as §1

fig-leafed goosefoot = experiment: Test Example 3: weedkilling efficacy through soil treatment; M: fig-leafed goosefoot; conditions: soil treatment, treatment dosage 315 g/ha
Summary of the method: as §1

bulrush [4] = experiment: Test Example 1: weedkilling efficacy, preemergent weed treatment in the submerged state; B: bulrush; conditions: treatment dosage 252 g/ha
Summary of the method: as §2

redroot pigweed = experiment: Test Example 3: weedkilling efficacy through soil treatment; L: redroot pigweed; conditions: soil treatment, treatment dosage 315 g/ha
Summary of the method: as §1

barnyard grass [5] = experiment: Test Example 1: weedkilling efficacy, preemergent weed treatment in the submerged state; A: barnyard grass; conditions: treatment dosage 252 g/ha
Summary of the method: as §2

Italian ryegrass = experiment: Test Example 3: weedkilling efficacy through soil treatment; I: Italian ryegrass; conditions: soil treatment, treatment dosage 315 g/ha
Summary of the method: as §1

green foxtail = experiment: Test Example 3: weedkilling efficacy through soil treatment; E: green foxtail; conditions: soil treatment, treatment dosage 315 g/ha
Summary of the method: as §1

Indian mallow = experiment: Test Example 3: weedkilling efficacy through soil treatment; K: Indian mallow; conditions: soil treatment, treatment dosage 315 g/ha
Summary of the method: as §1

oval-leafed pondweed [6] = experiment: Test Example 1: weedkilling efficacy, preemergent weed treatment in the submerged state; C: oval-leafed pondweed; conditions: treatment dosage 252 g/ha
Summary of the method: as §2

Row | SMILES | D: crabgrass, weedkilling efficacy grade (crabgrass) | a: transplanted rice, effect on crop grade (transplanted rice) | f: beet, effect on crop grade (beet) | d: soybean, effect on crop grade (soybean) | P: birds-eye speedwell, weedkilling efficacy grade (birds-eye speedwell) | N: chickweed, weedkilling efficacy grade (chickweed) | A (barnyard grass) weedkilling efficacy grade (barnyard grass [1]) | b: directly sown rice, effect on crop grade (directly sown rice) | H: black-grass, weedkilling efficacy grade (black-grass) | C (oval-leafed pondweed) weedkilling efficacy grade (oval-leafed pondweed [2]) | B (bulrush) weedkilling efficacy grade (bulrush [3]) | e: wheat, effect on crop grade (wheat) | c: corn, effect on crop grade (corn) | G: wild oat, weedkilling efficacy grade (wild oat) | M: fig-leafed goosefoot, weedkilling efficacy grade (fig-leafed goosefoot) | B: bulrush, weed kill grade (bulrush [4]) | L: redroot pigweed, weedkilling efficacy grade (redroot pigweed) | A: barnyard grass, weed kill grade (barnyard grass [5]) | I: Italian ryegrass, weedkilling efficacy grade (Italian ryegrass) | E: green foxtail, weedkilling efficacy grade (green foxtail) | further results
1 | CC(C)(C(=O)Nc1cccc(F)n1)N1COCN(c2ccccc2)C1=O [A-2-05] | 5 (weed kill ratio 90% or more, (practically complete withering)) | 3 (weed kill ratio 40% or more, less than 70%) | 5 (weed kill ratio 90% or more, (practically complete withering)) | 4 (weed kill ratio 70% or more, less than 90%) | 5 (weed kill ratio 90% or more, (practically complete withering)) | 4 (weed kill ratio 70% or more, less than 90%) | 4 (weed kill ratio 70% or more, less than 90%) | 5 (weed kill ratio 90% or more, (practically complete withering)) | 5 (weed kill ratio 90% or more, (practically complete withering)) | 4 (weed kill ratio 70% or more, less than 90%) | 5 (weed kill ratio 90% or more, (practically complete withering)) | 4 (weed kill ratio 70% or more, less than 90%) | 4 (weed kill ratio 70% or more, less than 90%) | 5 (weed kill ratio 90% or more, (practically complete withering)) | 4 (weed kill ratio 70% or more, less than 90%) | 5 (weed kill ratio 90% or more, (practically complete withering)) | 5 (weed kill ratio 90% or more, (practically complete withering)) | 5 (weed kill ratio 90% or more, (practically complete withering)) | 5 (weed kill ratio 90% or more, (practically complete withering)) | 5 (weed kill ratio 90% or more, (practically complete withering)) | K: Indian mallow, weedkilling efficacy grade (Indian mallow): 3 (weed kill ratio 40% or more, less than 70%); C: oval-leafed pondweed, weed kill grade (oval-leafed pondweed [6]): 5 (weed kill ratio 90% or more, (practically complete withering))
2 | CC(C)(C(=O)Nc1ncc(Cl)s1)N1COCN(c2ccccc2)C1=O [A-1-07] | 5 (weed kill ratio 90% or more, (practically complete withering)) | 0 (weed kill ratio 5% or less (practically no effect)) | 5 (weed kill ratio 90% or more, (practically complete withering)) | 1 (weed kill ratio 5% or more, less than 20%) | 5 (weed kill ratio 90% or more, (practically complete withering)) | 4 (weed kill ratio 70% or more, less than 90%) | 5 (weed kill ratio 90% or more, (practically complete withering)) | 5 (weed kill ratio 90% or more, (practically complete withering)) | 5 (weed kill ratio 90% or more, (practically complete withering)) | 5 (weed kill ratio 90% or more, (practically complete withering)) | 5 (weed kill ratio 90% or more, (practically complete withering)) | 2 (weed kill ratio 20% or more, less than 40%) | 3 (weed kill ratio 40% or more, less than 70%) | 5 (weed kill ratio 90% or more, (practically complete withering)) | 4 (weed kill ratio 70% or more, less than 90%) | 5 (weed kill ratio 90% or more, (practically complete withering)) | 5 (weed kill ratio 90% or more, (practically complete withering)) | 5 (weed kill ratio 90% or more, (practically complete withering)) | 5 (weed kill ratio 90% or more, (practically complete withering)) | 5 (weed kill ratio 90% or more, (practically complete withering)) | K: Indian mallow, weedkilling efficacy grade (Indian mallow): 4 (weed kill ratio 70% or more, less than 90%); C: oval-leafed pondweed, weed kill grade (oval-leafed pondweed [6]): 5 (weed kill ratio 90% or more, (practically complete withering))
3 | CC(C)(C(=O)Nc1cc(Cl)ccn1)N1COCN(c2ccccc2)C1=O [A-2-06] | 5 (weed kill ratio 90% or more, (practically complete withering)) | 4 (weed kill ratio 70% or more, less than 90%) | 4 (weed kill ratio 70% or more, less than 90%) | 3 (weed kill ratio 40% or more, less than 70%) | 5 (weed kill ratio 90% or more, (practically complete withering)) | 4 (weed kill ratio 70% or more, less than 90%) | 5 (weed kill ratio 90% or more, (practically complete withering)) | 5 (weed kill ratio 90% or more, (practically complete withering)) | 5 (weed kill ratio 90% or more, (practically complete withering)) | 5 (weed kill ratio 90% or more, (practically complete withering)) | 5 (weed kill ratio 90% or more, (practically complete withering)) | 1 (weed kill ratio 5% or more, less than 20%) | 3 (weed kill ratio 40% or more, less than 70%) | 5 (weed kill ratio 90% or more, (practically complete withering)) | 4 (weed kill ratio 70% or more, less than 90%) | 5 (weed kill ratio 90% or more, (practically complete withering)) | 5 (weed kill ratio 90% or more, (practically complete withering)) | 5 (weed kill ratio 90% or more, (practically complete withering)) | 5 (weed kill ratio 90% or more, (practically complete withering)) | 5 (weed kill ratio 90% or more, (practically complete withering)) | K: Indian mallow, weedkilling efficacy grade (Indian mallow): 4 (weed kill ratio 70% or more, less than 90%); C: oval-leafed pondweed, weed kill grade (oval-leafed pondweed [6]): 5 (weed kill ratio 90% or more, (practically complete withering))
